We go through 3 molecules from patent US20150290280A1, “ANTIMICROBIAL ARTICLES PRODUCED BY ADDITIVE MANUFACTURING” (ORTHOPAEDIC INNOVATION CENTER INC., priority 2012, published 2015).

One assay has as its system S. aureus. Kind of assay: Elution of antibiotics from 3D-printed coupons assessed by inhibition of growth of S. aureus on Meuller Hinton agar (Examples 3 and 4). Format: cell-based, Staphylococcus aureus. To be noted: about 72 hrs, 35-37° C., 25 = coupon diameter = no inhibition; for zone of inhibition, articles comprising PLA, antibiotic concentration 1%: 1% w/w antibiotic in PLA coupon; for zone of inhibition, articles comprising PLA, antibiotic concentration 2%: 2% w/w antibiotic in PLA coupon; for zone of inhibition, articles comprising PLA, antibiotic concentration 5%: 5% w/w antibiotic in PLA coupon; for zone of inhibition, articles comprising PCL polymer, antibiotic concentration 1%: 1% w/w antibiotic in PCL coupon; for zone of inhibition, articles comprising PCL polymer, antibiotic concentration 2%: 2% w/w antibiotic in PCL coupon; for zone of inhibition, articles comprising PCL polymer, antibiotic concentration 5%: 5% w/w antibiotic in PCL coupon. As to the method: Control coupons having the same physical dimensions and appearance as the test coupons, were printed with the […]® MOJO® printer by feeding the control filaments through the extrusion nozzle. The 2% and 5% tobramycin/PLA test coupons were printed with an extrusion temperature of 170° C., while the PLA control coupons and the 1% tobramycin/PLA test coupons were printed with an extrusion temperature of 205° C. The N12 control coupons, the 1%, 2%, and 5% gentamicin/N12 coupons, and the 1%, 2%, and 5% vancomycin/N12 coupons were printed at an extrusion temperature of 195° C. The remaining control coupons and test coupons were printed with an extrusion temperature of 170° C. The elution of antibiotics from the test coupons produced in Example 2 was assessed by the inhibition of the growth of S. aureus on the surfaces of Meuller Hinton agar contained within Petri dishes onto which test coupons placed. S. aureus cultures were grown on TSA amended with 5% sheep blood. A sufficient amount of S. aureus culture was transferred from the TSA culture plates to a 0.85% sterile saline solution to provide a uniform suspension that fell within a 0.5-2.0 McFarland turbidity standard. Aliquots of the S. aureus culture were plated onto Meuller Hinton agar in Petri dishes after which, two test coupons/dish (or alternatively, control coupons) were placed on the agar; one with its shiny side up and the other with its matte side up. The Meuller Hinton agar-containing Petri dishes were then incubated for about 72 hrs at temperatures in the range of about 35° C. to about 37° C. The zones of inhibition around each coupon were then measured and recorded (in mm) A clear zone around a test coupon indicates the inhibition of growth of S. aureus. […] The data shown in Tables 10, 11, and 12 confirm that all three antibiotics tested, i.e., tobramycin, gentamicin, and vancomycin, were eluted from articles printed with extruded antibiotic-containing polymers as evidenced by zones of inhibition of S. aureus cultures by articles comprising PLA polymer (Table 10), inhibition of S. aureus cultures by articles comprising PCL polymer (Table 11), and inhibition of S. aureus cultures by articles comprising HPDE polymer (Table 12). […] The control coupons for this study were taken from the batch of control coupons produced in Example 1. […] The data shown in Table 14 confirm that the three antibiotics were eluted from articles printed with extruded polymers comprising the three antibiotics.

The test system of a further assay is Staphylococcus aureus. Kind of assay: Zones of inhibition around 3D-printed coupons on S. aureus plated on Tryptic soy agar (Example 1). Particulars: 3D-printed PLA coupon (25 mm diameter) comprising 1% tobramycin; shiny side down; TSA; 72 h at 37° C. Format: cell-based. The procedure:
The 1% tobramycin/PLA filament was supplied to the extrusion nozzle of a STRATASYS® MOJO® FDM® 3D printer (STRATASYS and MOJO are registered trademarks of Stratasys Inc., Eden Prairie, Minn., USA) to print replicate test coupons with an extrusion temperature of 205° C. […] Control coupons having the same physical dimensions and appearance as the test coupons, were printed with the STRATASYS® MOJO® FDM® 3D printer by feeding the control PLA filament through the extrusion nozzle at an extrusion temperature of 205° C.
Aliquots of a culture of Staphylococcus aureus grown in Tryptic soy broth (TSB) were plated onto the surface of Tryptic soy agar (TSA) contained within Petri plates. Two test coupons were placed onto the plated S. aureus culture in a Petri plate with one shiny side down and one matte side down. Two control coupons were placed onto the plated S. aureus culture in a Petri plate with one shiny side down and one matte side down. Triplicate plates were prepared with test coupon and with control coupons. The Petri plates were incubated for 72 h at 37° C. after which, the plates were examined for the occurrence of zones of inhibition around the coupons. No inhibition of the growth of S. aureus in the Petri plates receiving the control coupons. […]

`NC[C@H]1O[C@H](O[C@H]2[C@H](O)[C@@H](O[C@H]3O[C@H](CO)[C@@H](O)[C@H](N)[C@H]3O)[C@H](N)C[C@@H]2N)[C@H](N)C[C@@H]1O` [Tobramycin, tobramycin]: the “zone of inhibition, articles comprising HDPE polymer, antibiotic concentration 1%” value in the assay on S. aureus (1% w/w antibiotic in HDPE coupon) stood at 27.0 mm. Besides, in the assay on S. aureus, the “zone of inhibition, articles comprising PLA, antibiotic concentration 1%” value was determined as 37.7 mm; the “zone of inhibition, articles comprising PLA, antibiotic concentration 2%” value came out at 27.5 mm; the “zone of inhibition, articles comprising PLA, antibiotic concentration 5%” value stood at 28 mm. For the same molecule, in the assay with S. aureus (2% w/w antibiotic in HDPE coupon), the “zone of inhibition, articles comprising HDPE polymer, antibiotic concentration 2%” value was determined as 28.5 mm. Besides, in the assay on S. aureus (5% w/w antibiotic in HDPE coupon), the “zone of inhibition, articles comprising HDPE polymer, antibiotic concentration 5%” value was found to be 37.5 mm. In the assay with Staphylococcus aureus, the “zones of inhibition in the growth of S. aureus around the shiny surfaces” value came out at 37.7 mm.
On to `CN[C@H](CC(C)C)C(=O)N[C@H]1C(=O)N[C@@H](CC(N)=O)C(=O)N[C@H]2C(=O)N[C@H]3C(=O)N[C@H](C(=O)N[C@H](C(=O)O)c4cc(O)cc(O)c4-c4cc3ccc4O)[C@H](O)c3ccc(c(Cl)c3)Oc3cc2cc(c3O[C@@H]2O[C@H](CO)[C@@H](O)[C@H](O)[C@H]2O[C@H]2C[C@](C)(N)[C@H](O)[C@H](C)O2)Oc2ccc(cc2Cl)[C@H]1O` [Vancomycin, vancomycin], for which, in the assay with S. aureus, the “zone of inhibition, articles comprising PCL polymer, antibiotic concentration 1%” value is given as 28.5 mm; the “zone of inhibition, articles comprising PCL polymer, antibiotic concentration 2%” value is listed as 25 mm; the “zone of inhibition, articles comprising PCL polymer, antibiotic concentration 5%” value is on record as 28.5 mm.
Consider gentamicin, for which, in the assay on S. aureus, the “zone of inhibition, articles comprising PCL polymer, antibiotic concentration 1%” value was 32.0 mm; the “zone of inhibition, articles comprising PLA, antibiotic concentration 1%” value was 34.0 mm; the “zone of inhibition, articles comprising PCL polymer, antibiotic concentration 2%” value came to 38.5 mm; the “zone of inhibition, articles comprising PLA, antibiotic concentration 2%” value amounted to 26.5 mm. For the same molecule, in the assay on S. aureus, the “zone of inhibition, articles comprising PCL polymer, antibiotic concentration 5%” value is reported as 41.0 mm and the “zone of inhibition, articles comprising PLA, antibiotic concentration 5%” value is 37.5 mm.
